According to EP1004317A1, “REMEDIES FOR DISEASES ASSOCIATED WITH BONE RESORPTION” (CHUGAI SEIYAKU KABUSHIKI KAISHA, priority 1997, dated 1999):
Structures can show the parent of a compound that is named as a salt. Marks after values point to notes of the source that are not given here.

Columns and labels:
ovariectomized rats [1] = assay: Effect on ovariectomized rats: biochemical parameter of urine (bone resorption marker); format: in vivo, Female Wistar-Imamichi rats; conditions: for D-pyr/Cre: OVX rats, urine collected after the final administration, mean ± standard deviation, n = 7, control OVX 11.83 ± 2.02
Text: (§1) Female Wistar-Imamichi rats were subjected to ovariectomy (OVX). As test drugs, use was made of L-N-6-(1-iminoethyl)lysine hydrochloride (NIL) and S-ethylisothiourea (EIT) which are known as selective iNOS inhibitors. […] To confirm the validity of the test system, 17-β-estradiol (βE2) was also employed.
(§2) One day after OVX, the rats were divided into 7 groups each having 7 animals. The administration of the drug was started on the day 4 after OVX. As a control, a sham group (7 animals) was also employed. NIL was orally administered in a dose of 0.1 or 0.02 mg/kg (0.1 ml per 100 g of body weight) 5 times per week for 10 weeks.
According to Dunnet's multiple comparison method, the statistically significant differences from the control ovariectomy group are expressed as follows: **: p < 0.01, ***: p < 0.001.
Number of animals/group = 7. Mean ± standard deviation.

nNOS/iNOS = conditions: cited from earlier work
eNOS/iNOS = conditions: cited from earlier work
ovariectomized rats [2] = assay: Effect on ovariectomized rats: lumbar bone density; format: in vivo, Female Wistar-Imamichi rats; conditions: sham group = 100%, control OVX group 85.2%
Text: as §1, §2
In this graph, the data are expressed in "mean ± standard deviation". According to Dunnet's multiple comparison method, the statistically significant differences from the control ovariectomy group are expressed as follows: • **: p < 0.01, ***: p < 0.001.

cNOS/iNOS = conditions: cited from earlier work

| Structure (SMILES) | excretion of deoxypyridinoline (D-pyr) versus control OVX group (in words) (ovariectomized rats [1]; EIT administration group, no statistically significant difference) | D-pyr/Cre (ovariectomized rats [1]; dose 0.1 mg/kg) | nNOS/iNOS (NOS inhibitory activity expressed in the ratio of IC50) (nNOS/iNOS) | eNOS/iNOS (NOS inhibitory activity expressed in the ratio of IC50) (eNOS/iNOS) | lumber bone density (ovariectomized rats [2]; EIT administration group, 24 hours after the final administration, p < 0.01) [%] | cNOS/iNOS (NOS inhibitory activity expressed in the ratio of IC50) (cNOS/iNOS) | excretion of deoxypyridinoline (D-pyr), acceleration versus control OVX group (in words) (ovariectomized rats [1]; 0.02 mg/kg, p < 0.01) | D-pyr/Cre (ovariectomized rats [1]; dose 0.02 mg/kg) | lumber bone density (ovariectomized rats [2]; 0.02 mg/kg orally, 5 times per week for 10 weeks) [%] | lumber bone density (ovariectomized rats [2]; 0.1 mg/kg orally, 5 times per week for 10 weeks) [%] |
| --- | --- | --- | --- | --- | --- | --- | --- | --- | --- | --- |
| CCSC(=N)N [EIT, S-ethylisothiourea] | a tendency toward decrease | 9.95 ± 1.71 | 19.23 | 28.46 | 92.6 |  |  |  |  |  |
| CC(=N)NCCCC[C@H](N)C(=O)O [NIL, L-N-6-(1-iminoethyl)lysine hydrochloride] |  | 10.43 ± 1.15 |  |  |  | 28 | significantly inhibited | 8.70 ± 1.59** | 86.8 | 90.2 |
| C[C@]12CC[C@@H]3c4ccc(O)cc4CC[C@H]3[C@@H]1CC[C@@H]2O [βE2, 17-β-estradiol] |  |  |  |  |  |  |  | 4.16 ± 1.45** |  |  |
